Read-outs that look alike come from different tables or passages of the source.
Experiments:
Type in all cases: in vivo
Musca domestica = assay: Topical application activity against Musca domestica; conditions: read-out: percent of mortality
Procedure: d. Activity against Musca domestica
This topical application test consisted of placing a microliter of an acetone solution of the test product on the dorsal thorax of Musca domestica after having been put to sleep with ether. The insects were held at 20° C and 50% relative humidity and were fed milk and water.

Panagrellus silusiae = assay: Nematocidal activity against Panagrellus silusiae
Procedure: b. Activity against Panagrellus silusiae
30 nematodes were placed on a watch glass and three tests were run for each concentration. The 3 watch glasses for each treatment were placed in a Petri dish with a 15 cm diameter containing a film of water in a manner to retard evaporation of the solution to wet the nematodes. The concentration of the product was 125 mg of MA/L and 1 ml of toxic solution was placed on each watch glass containing the nematodes in 0.5 ml of water.

Drosophila melanogaster = assay: Vapor activity against Drosophila melanogaster; conditions: inhaled or nasal, read-out: percentage of mortality
Procedure: a. Activity against Drosophila melanogaster
This test measures the vapor activity of the compounds and the less than 48 hours old insects were placed in a Petri dish with a 10 cm diameter connected by a tergal screen to a crystallizer of the same diameter in which the test compound in acetone solution is placed. The said solution is evaporated after the insects have been placed and 3 tests with 25 insects were run for each concentration. The results are expressed in Table I as a percentage of mortality after 1, 2, 4 and 6 hours.

Sitophilus granarius = assay: Topical application test against Sitophilus granarius; conditions: read-out: percent mortality
Procedure: c. Test against Sitophilus granarius
This topical application test comprised preparing the test compounds in acetone solution at concentrations of 5000, 500 and 50 mg of the active compound per liter and 0.2 μl of the solutions were applied to the ventral thorax of 50 Sitophilus granarius for each concentration.

[1] = system: Ditylenchus Myceliophagus; assay: Acaricide activity, Ditylenchus Myceliophagus; conditions: 24 h, read-out: Percent of mortality after 24 hours; for mortality at 1 µg/mL: 0.001 g/l; for mortality at 10 µg/mL: 0.010 g/l; for mortality at 100 µg/mL: 0.1 g/l
Procedure: In an apparatus containing 10 ml of an aqueous solution of the test product, 0.5 ml of water containing about 2000 acariens of Ditylenchus Myceliophagus were added thereto and the percent of mortality was determined by a binocular magnifying glass after 24 hours.

Spodoptera littoralis = assay: Ingestion test against Spodoptera littoralis caterpillars; conditions: po, read-out: percent of mortality
Procedure: e. Activity against Spodoptera littoralis
This test was effected with Spodoptera littoralis caterpillars 1 to 1.5 cm long and an average of 10 days old. In this ingestion test, 4 ml of an acetone solution of the test products was placed on lettuce rings with an 8 mm diameter which were placed in closed plastic dishes with a 5 cm diameter. 15 caterpillars were placed in each dish and were held at 20° C and 50% relative humidity and were fed when the insects had eaten the treated lettuce ring.

Musca domestica larvae = assay: Contact-ingestion test against Musca domestica larvae; conditions: read-out: percent of mortality
Procedure: g. Activity against Musca domestica larvae
This contact-ingestion test consisted of placing 2 ml of an acetone solution of different concentrations of the test product on 1 g of bran placed in a watch glass and the solvent was evaporated. The treated bran was placed in a plastic dish and was admixed with 2 ml of milk. 20 3 to 4 day old larvae of Musca domestica were added to the bran and were held at 20° C and 30% relative humidity and 3 tests were conducted for each concentration.

Meloidogynes spec = assay: Nematocidal activity against Meloidogynes spec (tomato root galls); conditions: 25 Kg/ha
Procedure: a. Activity against Meloidogynes spec
A volume of about 3 liters of dirt infested with Meloidogynes spec was placed in a plastic sack. Nematocidal treatments are considered effective to a depth of 30 cm, a volume of 3 liters of dirt corresponding to a surface area of 100 cm^ 2 or 10^-^6 ha (since 100 cm^ 2 × 30 cm = 3000 ml or 3 liters). Each volume of infested dirt received 100 ml of an aqueous suspension containing 0.250 g of the test product (corresponding to 250 Kg/ha) and the controls received only 100 ml of water. The plastic sacks containing the dirt were immediately sealed after the treatment and then agitated to obtain a good distribution of the product. Two weeks after the treatment, the sacks were opened and the dirt was used to plant 3 tomato plants of St. Pierre variety. The plants used were raised in the greenhouse with dirt sterilized with heat to obtain plants free of nematodes. Three plants were used for each test which was run 6 times for each treatment. Two months after planting the tomatoes were removed from the dirt and the efficacy was determined by counting the number of galls observed on the roots. A correlation between the population of Meloidogynes in the pot and the number of galls exists.

Blattella germanica = assay: Topical application activity against Blattella germanica; conditions: read-out: percent of mortality
Procedure: b. Activity against Blattella germanica
This test was a topical application in which adult male Blattella germanica received 2 microliters of an acetone solution of the test products between the second and third pair of paws. After this treatment, the test insects were held in a dim light at 20° C and were fed. The results expressed as percent of mortality in Table II were read 24 and 48 hours and 5 days after the treatment.

What does the source list for `CCCCOc1nc(OP(=S)(OC)OC)c(C#N)s1` [Compound B, 2-n-butoxy-4-dimethoxythiophosphoryloxy-5-cyano-thiazole]?
mortality at 500 ppm (Musca domestica; 1 H): 96%; mortality at 2500 ppm (Musca domestica; 1 H): 100%; mortality at 5000 ppm (Musca domestica; 1 H): 100%; mortality at 500 ppm (Musca domestica; 24 H): 100%; mortality at 2500 ppm (Musca domestica; 24 H): 100%; mortality at 5000 ppm (Musca domestica; 24 H): 100%; mortality at 1 µg/mL (Panagrellus silusiae; 0.001 g/l, 24 hours): 89.3%; mortality at 10 µg/mL (Panagrellus silusiae; 0.01 g/l, 24 hours): 100%; mortality at 100 µg/mL (Panagrellus silusiae; 24 h, read-out: % of mortality): 100%; mortality at 5 ppm (Drosophila melanogaster; 1 H): 0%; mortality at 50 ppm (Drosophila melanogaster; 1 H): 77%; mortality at 500 ppm (Drosophila melanogaster; 1 H): 100%; mortality at 5 ppm (Drosophila melanogaster; 4 H): 100%; mortality at 50 ppm (Drosophila melanogaster; 4 H): 100%; mortality at 500 ppm (Drosophila melanogaster; 4 H): 100%; mortality at 5 ppm (Drosophila melanogaster; 6 H): 100%; mortality at 50 ppm (Drosophila melanogaster; 6 H): 100%; mortality at 500 ppm (Drosophila melanogaster; 6 H): 100%; mortality at 50 ppm (Sitophilus granarius; 4 H): 0%; mortality at 500 ppm (Sitophilus granarius; 4 H): 96%; mortality at 5000 ppm (Sitophilus granarius; 4 H): 100%; mortality at 50 ppm (Sitophilus granarius; 24 H): 0%; mortality at 500 ppm (Sitophilus granarius; 24 H): 100%; mortality at 5000 ppm (Sitophilus granarius; 24 H): 100%; mortality at 50 ppm (Sitophilus granarius; 120 h, 5 Days): 0%; mortality at 500 ppm (Sitophilus granarius; 120 h, 5 Days): 100%; mortality at 5000 ppm (Sitophilus granarius; 120 h, 5 Days): 100%; mortality at 1 µg/mL [1]: 43.3%; mortality at 10 µg/mL [1]: 95.9%; mortality at 100 µg/mL [1]: 98.5%; mortality at 125 ppm (Spodoptera littoralis; 1 H, 125 ppm, ingestion): 0%; mortality at 250 ppm (Spodoptera littoralis; 1 H, 250 ppm, ingestion): 0%; mortality at 500 ppm (Spodoptera littoralis; 1 H, ingestion): 0%; mortality at 125 ppm (Spodoptera littoralis; 24 H, 125 ppm, ingestion): 50%; mortality at 250 ppm (Spodoptera littoralis; 24 H, 250 ppm, ingestion): 100%; mortality at 500 ppm (Spodoptera littoralis; 24 H, ingestion): 100%; mortality at 125 ppm (Spodoptera littoralis; 48 H, 125 ppm, ingestion): 90%; mortality at 250 ppm (Spodoptera littoralis; 48 H, 250 ppm, ingestion): 100%; mortality at 500 ppm (Spodoptera littoralis; 48 H, ingestion): 100%; mortality at 500 ppm (Musca domestica larvae; 48 H): 88%; mortality at 5000 ppm (Musca domestica larvae; 48 H): 93%; mortality at 500 ppm (Musca domestica larvae; 192 h, 8 Days): 98%; mortality at 5000 ppm (Musca domestica larvae; 192 h, 8 Days): 98%

How did the “Relative efficacity in % as compound to controls” value (Meloidogynes spec) turn out when `CCOc1nc(OP(=O)(OC)OC)c(C#N)s1` [Compound D, 2-ethoxy-4-dimethoxyphosphoryloxy-5-cyano-thiazole] was run?
Its value is 52.8%.

And the “Number of galls per foot” value (Meloidogynes spec; control 44.4)?
Its value is 31.25.

And the “Total number of galls” value (Meloidogynes spec; control 222)?
Its value is 125.

And the mortality at 5000 ppm (Musca domestica; 24 H)?
The mortality at 5000 ppm was 64%.

What about the mortality at 500 ppm (Drosophila melanogaster; 2 H) of the same molecule?
Its mortality at 500 ppm is 100%.

What about the mortality at 500 ppm (Drosophila melanogaster; 6 H) of the same molecule?
The mortality at 500 ppm was 100%.

What about the mortality at 5000 ppm (Sitophilus granarius; 4 H) of the same molecule?
Its mortality at 5000 ppm is 100%.

What about the mortality at 5000 ppm (Sitophilus granarius; 24 H) of the same molecule?
The mortality at 5000 ppm was 100%.

And the mortality at 5000 ppm (Sitophilus granarius; 120 h, 5 Days)?
The mortality at 5000 ppm was 100%.

And the mortality at 5000 ppm (Musca domestica larvae; 192 h, 8 Days)?
The mortality at 5000 ppm was 90%.

What about the mortality at 5000 ppm (Blattella germanica; 24 H) of the same molecule?
The mortality at 5000 ppm was 100%.

And the mortality at 5000 ppm (Blattella germanica; 48 H)?
The mortality at 5000 ppm was 100%.

What about the mortality at 5000 ppm (Blattella germanica; 120 h, 5 Days) of the same molecule?
The mortality at 5000 ppm was 100%.

Which results are given for `CCOc1nc(OP(=S)(OCC)OCC)c(C#N)s1` [A, 2-ethoxy-4-diethoxythiophosphoryloxy-5-cyano-thiazole]?
mortality at 500 ppm (Musca domestica; 1 H): 91%; mortality at 2500 ppm (Musca domestica; 1 H): 100%; mortality at 5000 ppm (Musca domestica; 1 H): 100%; mortality at 500 ppm (Musca domestica; 24 H): 94%; mortality at 2500 ppm (Musca domestica; 24 H): 100%; mortality at 5000 ppm (Musca domestica; 24 H): 100%; mortality at 5 ppm (Drosophila melanogaster; 1 H): 99%; mortality at 50 ppm (Drosophila melanogaster; 1 H): 100%; mortality at 500 ppm (Drosophila melanogaster; 1 H): 100%; mortality at 5 ppm (Drosophila melanogaster; 4 H): 100%; mortality at 50 ppm (Drosophila melanogaster; 4 H): 100%; mortality at 500 ppm (Drosophila melanogaster; 4 H): 100%; mortality at 5 ppm (Drosophila melanogaster; 6 H): 100%; mortality at 50 ppm (Drosophila melanogaster; 6 H): 100%; mortality at 500 ppm (Drosophila melanogaster; 6 H): 100%; mortality at 50 ppm (Sitophilus granarius; 4 H): 0%; mortality at 500 ppm (Sitophilus granarius; 4 H): 100%; mortality at 5000 ppm (Sitophilus granarius; 4 H): 100%; mortality at 50 ppm (Sitophilus granarius; 24 H): 0%; mortality at 500 ppm (Sitophilus granarius; 24 H): 100%; mortality at 5000 ppm (Sitophilus granarius; 24 H): 100%; mortality at 50 ppm (Sitophilus granarius; 120 h, 5 Days): 0%; mortality at 500 ppm (Sitophilus granarius; 120 h, 5 Days): 100%; mortality at 5000 ppm (Sitophilus granarius; 120 h, 5 Days): 100%; mortality at 1 µg/mL [1]: 81.8%; mortality at 10 µg/mL [1]: 91.6%; mortality at 100 µg/mL [1]: 100%; mortality at 62.5 ppm (Spodoptera littoralis; 1 H, 62.5 ppm, ingestion): 0%; mortality at 125 ppm (Spodoptera littoralis; 1 H, 125 ppm, ingestion): 0%; mortality at 250 ppm (Spodoptera littoralis; 1 H, 250 ppm, ingestion): 0%; mortality at 62.5 ppm (Spodoptera littoralis; 48 H, 62.5 ppm, ingestion): 80%; mortality at 125 ppm (Spodoptera littoralis; 48 H, 125 ppm, ingestion): 100%; mortality at 250 ppm (Spodoptera littoralis; 48 H, 250 ppm, ingestion): 100%; mortality at 62.5 ppm (Spodoptera littoralis; 24 h): 60%; mortality at 125 ppm (Spodoptera littoralis; 24 h): 100%; mortality at 250 ppm (Spodoptera littoralis; 24 h): 90%; mortality at 500 ppm (Musca domestica larvae; 48 H): 37%; mortality at 5000 ppm (Musca domestica larvae; 48 H): 64%; mortality at 500 ppm (Musca domestica larvae; 192 h, 8 Days): 63%; mortality at 5000 ppm (Musca domestica larvae; 192 h, 8 Days): 92%; mortality at 312.5 ppm (Blattella germanica; 24 H): 65%; mortality at 625 ppm (Blattella germanica; 24 H, 625 ppm): 100%; mortality at 1250 ppm (Blattella germanica; 24 H, 1250 ppm): 100%; mortality at 312.5 ppm (Blattella germanica; 48 H): 70%; mortality at 625 ppm (Blattella germanica; 48 H, 625 ppm): 100%; mortality at 1250 ppm (Blattella germanica; 48 H, 1250 ppm): 100%; mortality at 625 ppm (Blattella germanica; 120 h): 30%; mortality at 1250 ppm (Blattella germanica; 120 h): 100%

From patent US4020076A, “Novel phosphoryloxy-thiazoles” (priority 1974, dated 1977)
